Measured values reported in the supplement of paper PMC11208160.

Assay: recombinant UMI read abundance after kanamycin selection (control-corrected) (log10(CPM+1)); higher = more efficient recombination; extreme values may be limits of the assay; sequences stand for … in AGTGCAGAGAAAATCGGCCAGTTTTCTCTGCCTGCAGTCCGCATGCCGTGGGACCCCTTGGGTTCTAACCTGTTGCCTAGATTTATGCAGCGGACTGCCTTTCTCCCAAAGTGATAAACCGG…AGGTTGGTTTCACT; site = the 11-nt donor
Experimental: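 Pooled E. coli donor-specificity screen for the IS621 bridge recombinase. Each library member carries a reprogrammed 11-nt donor and a full-length LE bridge RNA expressed in cis from the natural promoter, with a paired donor-binding loop (8-nt LDG + 4-nt RDG) and a target-binding loop fixed to T5. It is co-electroporated with a T5 target plasmid; recombinase is induced with 0.07 mM IPTG and recombinants are selected on kanamycin. UMIs are counted as CPM, averaged over two biological replicates and corrected by the unselected control. Molecule = full bridge RNA written as DNA, built from the T5 scaffold: LDG = donor specificity nt 1-8, RDG = reverse complement of nt 8-11.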
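Note: IS621 bridge recombinase in Escherichia coli cells against a fixed T5 target plasmid.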

| Sequence | recombinant UMI read abundance (log10) |
| --- | --- |
| ACGTTTACATGGACCGGTTTTCCCGGTAATCCGTATTTGCT (site ACGTTTACTAG) | 2.06 |
| ACGTTTACATGGACCGGTTTTCCCGGTAATCCGTATTTGCT (site CCGTTTACTAG) | 1.53 |
| ACGTTTACATGGACCGGTTTTCCCGGTAATCCGTATTTGCT (site GCGTTTACTAG) | 0.666 |
| ACGTTTACATGGACCGGTTTTCCCGGTAATCCGTATTTGCT (site TCGTTTACTAG) | 1.37 |
| ACGTTTGCATGGACCGGTTTTCCCGGTAATCCGTATTTGTC (site ACGTTTGCTGA) | 1.45 |
| ACTAAGTCATGGACCGGTTTTCCCGGTAATCCGTATTTGAG (site ACTAAGTCTCT) | 2.46 |
| ACTACACCATGGACCGGTTTTCCCGGTAATCCGTATTTGCC (site ACTACACCTGG) | 0 |
| ACTACAGCATGGACCGGTTTTCCCGGTAATCCGTATTTGAC (site ACTACAGCTGT) | 2.36 |
| ACTACCCCATGGACCGGTTTTCCCGGTAATCCGTATTTGAC (site ACTACCCCTGT) | 0.736 |
| ACTAGAACATGGACCGGTTTTCCCGGTAATCCGTATTTGGG (site ACTAGAACTCA) | 0.0109 |
| ACTAGAACATGGACCGGTTTTCCCGGTAATCCGTATTTGGG (site ACTAGAACTCC) | 0.113 |
| ACTAGAACATGGACCGGTTTTCCCGGTAATCCGTATTTGGG (site ACTAGAACTCG) | 0.00448 |
| ACTAGAACATGGACCGGTTTTCCCGGTAATCCGTATTTGGG (site ACTAGAACTCT) | 0.0325 |
| ACTAGAACATGGACCGGTTTTCCCGGTAATCCGTATTTGTG (site ACTAGAACTCA) | 1.35 |
| ACTAGAACATGGACCGGTTTTCCCGGTAATCCGTATTTGTG (site ACTAGAACTCC) | 0.0298 |
| ACTAGAACATGGACCGGTTTTCCCGGTAATCCGTATTTGTG (site ACTAGAACTCG) | 0.285 |
| ACTAGAACATGGACCGGTTTTCCCGGTAATCCGTATTTGTG (site ACTAGAACTCT) | 0 |
| ACTAGTGCATGGACCGGTTTTCCCGGTAATCCGTATTTGGA (site ACTAGTGCTAC) | 0 |
| ACTAGTGCATGGACCGGTTTTCCCGGTAATCCGTATTTGGA (site ACTAGTGCTCC) | 0.0115 |
| ACTAGTGCATGGACCGGTTTTCCCGGTAATCCGTATTTGGA (site ACTAGTGCTGC) | 0 |
| ACTAGTGCATGGACCGGTTTTCCCGGTAATCCGTATTTGGA (site ACTAGTGCTTC) | 1.36 |
| ACTATAGCATGGACCGGTTTTCCCGGTAATCCGTATTTGCA (site ACTATAGCTTG) | 1.94 |
| ACTCAAGCATGGACCGGTTTTCCCGGTAATCCGTATTTGTT (site ACTCAAGCTAA) | 1.72 |
| ACTCCAGCATGGACCGGTTTTCCCGGTAATCCGTATTTGTG (site ACTCCAGCTCA) | 0.753 |

| Sequence | recombinant UMI read abundance (log10) |
| --- | --- |
| ACTCGAGCATGGACCGGTTTTCCCGGTAATCCGTATTTGCT (site ACTCGAGCTAG) | 1.64 |
| ACTCTAGCATGGACCGGTTTTCCCGGTAATCCGTATTTGCC (site ACTCTAGCTGG) | 0 |
| ACTGAATCATGGACCGGTTTTCCCGGTAATCCGTATTTGCC (site ACTGAATCTGG) | 2.1 |
| ACTGCATCATGGACCGGTTTTCCCGGTAATCCGTATTTGGA (site ACTGCATCTTC) | 1.22 |
| ACTGGAACATGGACCGGTTTTCCCGGTAATCCGTATTTGAG (site ACTAGAACTCT) | 1.69 |
| ACTGGAACATGGACCGGTTTTCCCGGTAATCCGTATTTGAG (site ACTCGAACTCT) | 0.239 |
| ACTGGAACATGGACCGGTTTTCCCGGTAATCCGTATTTGAG (site ACTGGAACTCT) | 2.11 |
| ACTGGAACATGGACCGGTTTTCCCGGTAATCCGTATTTGAG (site ACTTGAACTCT) | 0.0249 |
| ACTGGAGCATGGACCGGTTTTCCCGGTAATCCGTATTTGCT (site ACTGGAGCTAG) | 1.86 |
| ACTGGATCATGGACCGGTTTTCCCGGTAATCCGTATTTGAG (site ACTGGATCTCT) | 2.41 |
| ACTGGATCATGGACCGGTTTTCCCGGTAATCCGTATTTGCA (site ACAGTATCTTG) | 0.973 |
| ACTGGATCATGGACCGGTTTTCCCGGTAATCCGTATTTGCA (site ACTGGATCTTG) | 1.64 |
| ACTGGGACATGGACCGGTTTTCCCGGTAATCCGTATTTGAG (site ACTGGGACTCT) | 1.39 |
| ACTGGTACATGGACCGGTTTTCCCGGTAATCCGTATTTGAA (site ACTGGTACTTT) | 1.1 |
| ACTGTATCATGGACCGGTTTTCCCGGTAATCCGTATTTGAA (site ACAGTATCTTG) | 0 |
| ACTGTATCATGGACCGGTTTTCCCGGTAATCCGTATTTGAA (site ACTGTATCTTT) | 1.99 |
| ACTGTATCATGGACCGGTTTTCCCGGTAATCCGTATTTGCA (site ACAGTATCTTG) | 1.82 |
| ACTGTATCATGGACCGGTTTTCCCGGTAATCCGTATTTGCA (site ACCGTATCTTG) | 1.91 |
| ACTGTATCATGGACCGGTTTTCCCGGTAATCCGTATTTGCA (site ACGGTATCTTG) | 1.96 |
| ACTGTATCATGGACCGGTTTTCCCGGTAATCCGTATTTGCA (site ACTGTATCTTG) | 2.57 |
| ACTTAGACATGGACCGGTTTTCCCGGTAATCCGTATTTGGT (site ACTTAGACTAC) | 1.15 |
| ACTTGATCATGGACCGGTTTTCCCGGTAATCCGTATTTGCG (site ACTTGATCTCG) | 1.57 |
| ACTTTAACATGGACCGGTTTTCCCGGTAATCCGTATTTGGT (site ACTTTAACTAC) | 0.85 |
| AGAAAAACATGGACCGGTTTTCCCGGTAATCCGTATTTGCA (site AGAAAAACTTG) | 2.23 |

| Sequence | recombinant UMI read abundance (log10) |
| --- | --- |
| AGAAAAACATGGACCGGTTTTCCCGGTAATCCGTATTTGCA (site AGGAAGACTTG) | 0 |
| AGAAAGGCATGGACCGGTTTTCCCGGTAATCCGTATTTGCC (site AGAAAGGCTAG) | 0 |
| AGAAAGGCATGGACCGGTTTTCCCGGTAATCCGTATTTGCC (site AGAAAGGCTCG) | 0.784 |
| AGAAAGGCATGGACCGGTTTTCCCGGTAATCCGTATTTGCC (site AGAAAGGCTGG) | 1.78 |
| AGAAAGGCATGGACCGGTTTTCCCGGTAATCCGTATTTGCC (site AGAAAGGCTTG) | 1.79 |
| AGAAAGGCATGGACCGGTTTTCCCGGTAATCCGTATTTGGT (site AGAAAGGCTAA) | 1.65 |
| AGAAAGGCATGGACCGGTTTTCCCGGTAATCCGTATTTGGT (site AGAAAGGCTAC) | 0.881 |
| AGAAAGGCATGGACCGGTTTTCCCGGTAATCCGTATTTGGT (site AGAAAGGCTAG) | 0.34 |
| AGAAAGGCATGGACCGGTTTTCCCGGTAATCCGTATTTGGT (site AGAAAGGCTAT) | 0.986 |
| AGAAAGGCATGGACCGGTTTTCCCGGTAATCCGTATTTGTT (site AGAAAGGCTAA) | 1.99 |
| AGAAAGGCATGGACCGGTTTTCCCGGTAATCCGTATTTGTT (site AGAAAGGCTAC) | 0 |
| AGAAAGGCATGGACCGGTTTTCCCGGTAATCCGTATTTGTT (site AGAAAGGCTAG) | 1.47 |
| AGAAAGGCATGGACCGGTTTTCCCGGTAATCCGTATTTGTT (site AGAAAGGCTAT) | 0.97 |
| AGAAAGTCATGGACCGGTTTTCCCGGTAATCCGTATTTGCA (site AGAAAGTCTTG) | 2.65 |
| AGAAAGTCATGGACCGGTTTTCCCGGTAATCCGTATTTGCA (site AGGAAGACTTG) | 0 |
| AGAAATCCATGGACCGGTTTTCCCGGTAATCCGTATTTGTT (site AGAAATCCTAA) | 0.589 |
| AGAAATCCATGGACCGGTTTTCCCGGTAATCCGTATTTGTT (site CGGAATCCTAA) | 0.00278 |
| AGAAATGCATGGACCGGTTTTCCCGGTAATCCGTATTTGAG (site AGAAATGCTCT) | 2.88 |
| AGAAATGCATGGACCGGTTTTCCCGGTAATCCGTATTTGCC (site AGAAATGCTGG) | 1.67 |
| AGAATGCCATGGACCGGTTTTCCCGGTAATCCGTATTTGAC (site AGAATGCCTGT) | 0 |
| AGACACCCATGGACCGGTTTTCCCGGTAATCCGTATTTGCA (site AGACACCCTTG) | 1.15 |
| AGACGAGCATGGACCGGTTTTCCCGGTAATCCGTATTTGCG (site AGACGAGCTCG) | 2.67 |
| AGACTTGCATGGACCGGTTTTCCCGGTAATCCGTATTTGTA (site AGACTTGCTTA) | 0.887 |
| AGAGCGACATGGACCGGTTTTCCCGGTAATCCGTATTTGTG (site AGAGCGACTCA) | 1.49 |
